Series [1] can be described thus: Inhibition of rabbit stomach K+ stimulated H(+)/K(+) ATPase activity incubated for 30 mins in presence of ATP and KCl by malachite green reagent based assay. The series is classed as tissue-based, Oryctolagus cuniculus.
A short description of series [2]: Inhibition of gastric acid secretion in histamine induced Sprague-Dawley rat at 1 mg/kg, iv pretreated with compound for 15 mins followed by histamine dihydrochloride injection and measured after 3 hrs. The series is classed as functional. To be noted: 3.25 h, time 195 min.
Series [3] is described as follows: Cmax in Sprague-Dawley rat at 8 mg/kg, po by LC-MS/MS analysis. The series is classed as ADME, organism-based. On the set-up: dose 8 mg/kg, route po. As to conditions: in vivo.
The nature of series [4]: Oral bioavailability in Sprague-Dawley rat at 8 mg/kg by LC-MS/MS analysis. The series is classed as ADME, organism-based. As to conditions: in vivo.
Series [5] is described as follows: Terminal half life in Sprague-Dawley rat at 2 mg/kg, iv by LC-MS/MS analysis. To be noted: in vivo, read-out: beta t1/2 (converted). Type of series: ADME, organism-based.
Series [6] is described as follows: AUC (0 to infinity) in Sprague-Dawley rat at 8 mg/kg, po by LC-MS/MS analysis. Type of series: ADME, organism-based. Details: time infinity, dose 8 mg/kg, route po. To be noted: in vivo.
Series [7] in a line: Elimination half life in Sprague-Dawley rat at 8 mg/kg, po by LC-MS/MS analysis. To be noted: in vivo, read-out: beta t1/2 (converted). Type of series: ADME, organism-based.
Series [8] is described as follows: AUC (0 to infinity) in Sprague-Dawley rat at 2 mg/kg, iv by LC-MS/MS analysis. The series is classed as ADME, organism-based. On the set-up: time infinity, dose 2 mg/kg, route iv. To be noted: in vivo.
Series [9] can be described thus: Oral bioavailability in Sprague-Dawley rat at 2 mg/kg. The series is classed as ADME, organism-based. As to conditions: in vivo.
Series [10] can be described thus: Half life in Sprague-Dawley rat at 0.75 mg/kg, iv measured up to 24 hrs. Type of series: ADME, organism-based. As to conditions: in vivo.
Series [11] can be described thus: Half life in Sprague-Dawley rat at 2 mg/kg, po. As to conditions: in vivo. Type of series: ADME, organism-based.
Series [12] can be described thus: AUC (0 to infinity) in Sprague-Dawley rat at 2 mg/kg, po. The series is classed as ADME, organism-based. On the set-up: time infinity, dose 2 mg/kg, route po. To be noted: in vivo.
A short description of series [13]: AUC (0 to infinity) in Sprague-Dawley rat at 0.75 mg/kg, iv measured up to 24 hrs. To be noted: in vivo. On the set-up: dose 0.75 mg/kg, time < 24 hrs, route iv. Type of series: ADME, organism-based.
Series [14] is described as follows: Cmax in Sprague-Dawley rat at 2 mg/kg, po. Type of series: ADME, organism-based. Details: dose 2 mg/kg, route po. As to conditions: in vivo.

Broadly, the IC50 is the concentration that inhibits the measured activity by half. As a reminder, the inhibition in vivo is the drop in the measured response relative to a control, in per cent. For orientation: Cmax means the highest concentration seen after dosing. Broadly, the bioavailability is dose-corrected exposure relative to a reference, in per cent. Lower therefore signals little systemic uptake. By AUC(0-inf) is commonly meant total exposure, with the tail of the curve extrapolated. Higher therefore signals more exposure.

`CN1Cc2nn(Cc3cccc(-c4cccc(N(C)C)c4)c3)c(-c3ccccc3F)c2C1`: the IC50 in series [1] worked out at 313 nM.

Turning to `CN1Cc2nn(Cc3cccc(O)c3)c(-c3cccc(O)c3)c2C1`, in series [1], the IC50 was found to be 1240 nM.

Consider `Cc1ccccc1-c1c2c(nn1Cc1cccc(O)c1)CN(C)C2`, for which, in series [1], the IC50 was determined as 97.5 nM.

In the case of `Cc1ccc(-c2c3c(nn2Cc2cccc(O)c2)CN(C)C3)c(F)c1`, in series [1], the IC50 turned out to be 416 nM.

Take `CN1Cc2nn(Cc3cccc(O)c3)c(-c3cccnc3F)c2C1`: the half-inhibitory concentration (IC50) in series [1] came to 488 nM. In the case of `CN1Cc2nn(Cc3cccc([N+](=O)[O-])c3)c(-c3ccccc3F)c2C1`, the IC50 in series [1] was found to be 140 nM. Same read-out and setting: in the case of `CN1Cc2nn(Cc3cccnc3)c(-c3ccccc3F)c2C1` it was 674 nM. Turning to `CN1Cc2nn(Cc3cccc(O)c3)c(-c3ccccc3F)c2C1`, in [2], the inhibition in vivo at 1 mg/kg was 35.6%. Moreover, the half-maximal inhibitory concentration (IC50) in series [1] worked out at 77.3 nM. On to `CN1Cc2nn(Cc3cccc(O)c3)c(-c3cccnc3)c2C1`, for which, in [1], the IC50 was determined as 4170 nM. On to `COC(=O)c1ccccc1-c1c2c(nn1Cc1cccc(O)c1)CN(C)C2`, for which the IC50 in series [1] is > 10000 nM. Turning to `CN1Cc2nn(Cc3cccc(O)c3)c(-c3cccc(Cl)c3)c2C1`, the concentration for half-maximal inhibition (IC50) in series [1] is 6350 nM. On the same count and under the same terms, in the case of `CN1Cc2nn(Cc3ccccc3F)c(-c3ccccc3F)c2C1` it was 814 nM. The same measure, in the same setting: the figure for `CN1Cc2nn(Cc3cc4ccccc4o3)c(-c3ccccc3F)c2C1` is 4300 nM. The compound `CN1Cc2nn(Cc3cccc(-c4cccc(C(N)=O)c4)c3)c(-c3ccccc3F)c2C1` displayed a Cmax in series [3] of 150 ng/mL. The inhibition in vivo at 1 mg/kg in [2] is 86.8%. Moreover, the bioavailability in [4] was found to be 16.4%. The half-life in series [5] is 0.49 h; in series [7], 0.8 h. In addition, the values for the AUC(0-inf) in series [6] and in [8] were 341 ng·h/mL and 520 ng·h/mL, respectively. Besides, in series [1], the IC50 is 60.5 nM.

As to `CN1Cc2nn(Cc3cccc(-c4cccc(C#N)c4)c3)c(-c3ccccc3F)c2C1`, the IC50 in series [1] came to 396 nM. For the compound `CN1Cc2nn(Cc3cccc(O)c3)c(-c3ccccc3)c2C1`, the IC50 in series [1] amounted to 1850 nM. For `CN1Cc2nn(S(=O)(=O)c3cccnc3)c(-c3ccccc3F)c2C1`, the half-inhibitory concentration (IC50) in series [1] came out at 1100 nM. With `CN1Cc2nn(Cc3cccc(-c4cccc(C(F)(F)F)c4)c3)c(-c3ccccc3F)c2C1`, the IC50 in [1] was 440 nM. Still for that read-out and setting: in the case of `CN1Cc2nn(Cc3cccc(O)c3)c(-c3ccccc3Cl)c2C1` it was 104 nM; in that of `CN1Cc2nn(Cc3ccccc3)c(-c3ccccc3F)c2C1`, 861 nM; in that of `CN1Cc2nn(Cc3cccc(OCC(N)=O)c3)c(-c3ccccc3F)c2C1`, 747 nM. Same read-out and setting: the figure for `CN1Cc2nn(Cc3cccc(OCCC(=O)O)c3)c(-c3ccccc3F)c2C1` is 1840 nM; for `CN1Cc2nn(Cc3ccoc3)c(-c3ccccc3F)c2C1` it is 3200 nM. On the same count and under the same terms, the figure for `CN1Cc2nn(Cc3cccc(N4CCOCC4)c3)c(-c3ccccc3F)c2C1` is 410 nM; for `CN1Cc2nn(Cc3cccc(N)c3)c(-c3ccccc3F)c2C1` it is 894 nM. As for `COc1cccc(Cn2nc3c(c2-c2ccccc2F)CN(C)C3)c1`, the half-inhibitory concentration (IC50) in series [1] turned out to be 290 nM. With `CN1Cc2nn(Cc3cccc(F)c3)c(-c3ccccc3F)c2C1`, the half-inhibitory concentration (IC50) in series [1] was found to be 342 nM.

On to `CN1Cc2nn(Cc3cccc(-c4ccccc4F)c3)c(-c3ccccc3F)c2C1`, for which the IC50 in series [1] is 376 nM. On the same count and under the same terms, in the case of `CN1Cc2nn(Cc3cccc(O)c3)c(-c3ccccc3CO)c2C1` it was > 10000 nM; in that of `CN1Cc2nn(Cc3ccc(F)cc3)c(-c3ccccc3F)c2C1`, 585 nM. With `CN1Cc2nn(Cc3cccc(Cl)c3)c(-c3ccccc3F)c2C1`, the half-inhibitory concentration (IC50) in series [1] stood at 354 nM.

With `CN1Cc2nn(Cc3cccc(-c4ccc(F)cc4)c3)c(-c3ccccc3F)c2C1`, the IC50 in series [1] worked out at 340 nM.

In the case of `CN1Cc2nn(Cc3cccc(-c4cccc(F)c4)c3)c(-c3ccccc3F)c2C1`, in series [1], the IC50 was determined as 328 nM.

With `CN1Cc2cc(S(=O)(=O)c3ccccc3)n(-c3ccccc3F)c2C1`, the half-inhibitory concentration (IC50) in series [1] is 2110 nM.

On to `CN1Cc2c(-c3ccccc3F)nn(S(=O)(=O)c3ccccc3)c2C1`, for which, in series [1], the IC50 was > 10000 nM. On the same count and under the same terms, the figure for `CN1Cc2nn(Cc3cccc(OCCC(N)=O)c3)c(-c3ccccc3F)c2C1` is 389 nM; for `CN1Cc2nn(S(=O)(=O)c3ccccc3)c(-c3ccccc3F)c2C1` it is 1030 nM; for `CN1Cc2nn(Cc3cccc(O)c3)c(-c3ccc(O)cc3)c2C1` it is 3580 nM. `CC(C)Oc1ccc(-c2c3c(nn2Cc2cccc(O)c2)CN(C)C3)cc1`: the concentration for half-maximal inhibition (IC50) in series [1] was > 10000 nM. Still for that read-out and setting: the figure for `CN1Cc2nn(Cc3ccsc3)c(-c3ccccc3F)c2C1` is 2160 nM; for `CN1Cc2nn(Cc3cccc(-c4cccc(S(C)(=O)=O)c4)c3)c(-c3ccccc3F)c2C1` it is 129 nM.

Take `CNCc1cc(-c2ccccc2F)n(S(=O)(=O)c2cccnc2)c1` [VONOPRAZAN]: the inhibition in vivo at 1 mg/kg in [2] worked out at 91%. In series [9], this compound came in with a bioavailability of 10%. In addition, the half-life was 1.2 h in [10] and 1.3 h in series [11]. Moreover, the AUC(0-inf) worked out at 27 ng·h/mL in [12] and 99 ng·h/mL in series [13]. In series [1], the half-maximal inhibitory concentration (IC50) came to 49.1 nM. This compound also yielded a Cmax in [14] of 17 ng/mL.

The record behind these values is ChEMBL document CHEMBL5143684, “Design, synthesis and biological evaluation of novel 5-methyl-2,4,5,6-tetrahydropyrrolo[3,4-c]pyrazole derivatives as potent potassium-competitive acid blockers” (Bioorg Med Chem, 2022).
